{"source": "patent US20210186838A1", "about": "“ACTIVE SUBSTANCE COMBINATIONS OF N-(4-AMINO-2-METHYLQUINOLIN-6-YL)-2-((4-ETHYLPHENOXY)METHYL)BENZAMIDE AND ONE OR MORE COSMETICALLY OR DERMATOLOGICALLY ACCEPTABLE PRESERVATIVES AND/OR PRESERVATIVE AUXILIARIES” (BEIERSDORF AG, priority 2017, published 2021)", "key": {"subcutaneous adipocytes": {"test_system": "subcutaneous adipocytes", "test": "lipid assay (AdipoRed staining of total lipid)", "assay_type": "cell-based", "conditions": "for Assay in which the combination showed better activity than the corresponding active substance alone: Lipid: active substance combined with 10 ng/ml N-(4-amino-2-methylquinolin-6-yl)-2-((4-ethylphenoxy)methyl)benzamide, adipocytes, one week, AdipoRed, assay named in cell = better activity", "protocol": "The lipid assay is performed on subcutaneous adipocytes. Cell culture dishes are inoculated with preadipocytes, which undergo differentiation into adipocytes. This is followed by treatment with the active substance for one week, during which the cells synthesize lipids and store them in vesicles. The total amount of lipid as a function of active substance effects is determined at the end of the culture period. This is done by staining the cell monolayer with the lipophilic fluorescent dye AdipoRed, followed by quantification by fluorescence spectroscopy."}, "human adipocytes": {"test_system": "human adipocytes", "test": "LDH (lactate dehydrogenase) cytotoxicity assay", "conditions": "for Assay in which the combination showed better activity than the corresponding active substance alone: LDH: active substance combined with 10 ng/ml N-(4-amino-2-methylquinolin-6-yl)-2-((4-ethylphenoxy)methyl)benzamide, LDH in medium supernatant, assay named in cell = better activity (less LDH escape)", "procedure": "The third assay performed is the LDH (lactate dehydrogenase) cytotoxicity assay. In this assay, the metabolic enzyme LDH is detected in the medium supernatant of the cell monolayer by adding a substrate for the enzyme to the cell culture supernatant. Reaction of the latter produces a color change, which is determined photometrically. The magnitude of the color change correlates here with the amount of LDH in the cell culture supernatant.\nFor all assays, the active substances were present as 1000× stocks dissolved to 10 mM in DMSO and were diluted 1:1000 in the appropriate cell culture medium for use."}, "dermal fibroblasts": {"test_system": "dermal fibroblasts", "test": "viability assay (BrdU incorporation, cell division rate)", "assay_type": "cell-based", "conditions": "24 h; for Assay in which the combination showed better activity than the corresponding active substance alone: BrdU: active substance combined with 10 ng/ml N-(4-amino-2-methylquinolin-6-yl)-2-((4-ethylphenoxy)methyl)benzamide, assay named in cell = better activity", "excerpt": "The cells take up this synthetic nucleic acid, which is detectable by fluorescence detection, and incorporate it into newly synthesized genetic material during cell division. […] This allows conclusions to be drawn about the effect of the individual active substances on cell viability."}}, "data": [{"compound": "CCCCC(O)CO", "note": "(stereo not drawn) [1,2-Hexanediol/Hydiol 6, 1,2-Hexanediol]", "values": [{"measurement": "Assay in which the combination showed better activity than the corresponding active substance alone: Lipid", "setting": "subcutaneous adipocytes", "result": "Lipid"}, {"measurement": "Assay in which the combination showed better activity than the corresponding active substance alone: LDH", "setting": "human adipocytes", "result": "LDH"}]}, {"compound": "OCc1ccccc1", "note": "[Benzyl alcohol]", "values": [{"measurement": "Assay in which the combination showed better activity than the corresponding active substance alone: Lipid", "setting": "subcutaneous adipocytes", "result": "Lipid"}]}, {"compound": "OCCCCO", "note": "[Butylene glycol/Natan, Butylene glycol]", "values": [{"measurement": "Assay in which the combination showed better activity than the corresponding active substance alone: BrdU", "setting": "dermal fibroblasts", "result": "BrdU"}, {"measurement": "Assay in which the combination showed better activity than the corresponding active substance alone: Lipid", "setting": "subcutaneous adipocytes", "result": "Lipid"}]}, {"compound": "CCOC(=O)c1ccc(O)cc1", "note": "[Ethylparaben/Konpar A, Ethylparaben]", "values": [{"measurement": "Assay in which the combination showed better activity than the corresponding active substance alone: BrdU", "setting": "dermal fibroblasts", "result": "BrdU"}, {"measurement": "Assay in which the combination showed better activity than the corresponding active substance alone: LDH", "setting": "human adipocytes", "result": "LDH"}]}, {"compound": "CCCCCCCC(=O)OCC(O)CO", "note": "(stereo not drawn) [Glyceryl caprylate/emulsifier CY, Glyceryl caprylate]", "values": [{"measurement": "Assay in which the combination showed better activity than the corresponding active substance alone: BrdU", "setting": "dermal fibroblasts", "result": "BrdU"}]}, {"compound": "CC1(C)C(=O)N(CO)C(=O)N1CO", "note": "[Kondant/DMDM hydantoin, DMDM hydantoin]", "values": [{"measurement": "Assay in which the combination showed better activity than the corresponding active substance alone: BrdU", "setting": "dermal fibroblasts", "result": "BrdU"}, {"measurement": "Assay in which the combination showed better activity than the corresponding active substance alone: Lipid", "setting": "subcutaneous adipocytes", "result": "Lipid"}]}, {"compound": "Cn1sccc1=O", "note": "[Methylisothiazolinone/Konlon 950, Methylisothiazolinone]", "values": [{"measurement": "Assay in which the combination showed better activity than the corresponding active substance alone: BrdU", "setting": "dermal fibroblasts", "result": "BrdU"}, {"measurement": "Assay in which the combination showed better activity than the corresponding active substance alone: Lipid", "setting": "subcutaneous adipocytes", "result": "Lipid"}]}, {"compound": "CC(CO)CO", "note": "[Methylpropanediol/Lolo, Methylpropanediol]", "values": [{"measurement": "Assay in which the combination showed better activity than the corresponding active substance alone: Lipid", "setting": "subcutaneous adipocytes", "result": "Lipid"}]}, {"compound": "CCc1ccc(OCc2ccccc2C(=O)Nc2ccc3nc(C)cc(N)c3c2)cc1", "note": "[N-(4-Amino-2-methylquinolin-6-yl)-2-((4-ethylphenoxy)methyl)benzamide]", "values": [{"measurement": "rate of incorporation of BrdU", "setting": "dermal fibroblasts; in combination with a preservative versus the corresponding preservative alone, FIG. 1", "result": "increase"}, {"measurement": "accumulation of AdipoRed (differentiation performance of the adipocytes)", "setting": "subcutaneous adipocytes; in combination with a preservative versus the corresponding preservative alone, one week treatment, FIG. 2", "result": "increase"}, {"measurement": "rate of escape of LDH", "setting": "human adipocytes; in combination with a preservative versus the corresponding preservative alone, human adipocytes, FIG. 3", "result": "decrease"}]}, {"compound": "Cc1cc(CC(C)CC(C)(C)C)n(O)c(=O)c1.NCCO", "note": "(stereo not drawn) [Piroctone olamine/Octupus, Piroctone olamine]", "values": [{"measurement": "Assay in which the combination showed better activity than the corresponding active substance alone: BrdU", "setting": "dermal fibroblasts", "result": "BrdU"}, {"measurement": "Assay in which the combination showed better activity than the corresponding active substance alone: Lipid", "setting": "subcutaneous adipocytes", "result": "Lipid"}]}, {"compound": "O=C([O-])c1ccccc1.[Na+]", "note": "[Sodium benzoate]", "values": [{"measurement": "Assay in which the combination showed better activity than the corresponding active substance alone: Lipid", "setting": "subcutaneous adipocytes", "result": "Lipid"}, {"measurement": "Assay in which the combination showed better activity than the corresponding active substance alone: LDH", "setting": "human adipocytes", "result": "LDH"}]}, {"compound": "O=C([O-])c1ccccc1O.[Na+]", "note": "[Sodium salicylate]", "values": [{"measurement": "Assay in which the combination showed better activity than the corresponding active substance alone: Lipid", "setting": "subcutaneous adipocytes", "result": "Lipid"}]}, {"compound": "CCCCCCC(O)CO", "note": "(stereo not drawn) [octane-1,2-diol]", "values": [{"measurement": "Assay in which the combination showed better activity than the corresponding active substance alone: BrdU", "setting": "dermal fibroblasts", "result": "BrdU"}, {"measurement": "Assay in which the combination showed better activity than the corresponding active substance alone: LDH", "setting": "human adipocytes", "result": "LDH"}]}, {"compound": "Phenoxyethanol [Phenoxyethanol/Phenoxetol]", "values": [{"measurement": "Assay in which the combination showed better activity than the corresponding active substance alone: Lipid", "setting": "subcutaneous adipocytes", "result": "Lipid"}]}]}
